Test results taken from US20220289727A1, “ENZYME INHIBITORS” (KALVISTA PHARMACEUTICALS LIMITED, priority 2019, published 2022).

What was measured:
[1] = target: T1, Human FXIa (Homo sapiens, UniProt P03951); experiment: Determination of FXIa inhibitory activity in vitro (fluorogenic substrate Z-Gly-Pro-Arg-AFC); format: biochemical; conditions: selectivity, 25° C., residual enzyme activity (initial rate)
T1 construct: Human FXIa (Enzyme Research Laboratories) was incubated; purchased Enzyme Research Laboratories

[2] = target: T2, Human Factor XIIa (Homo sapiens, UniProt P00748); experiment: Determination of FXIIa inhibitory activity in vitro (fluorogenic substrate H-DPro-Phe-Arg-AFC); format: biochemical; conditions: 25° C., residual enzyme activity (initial rate)
T2 construct: Human Factor XIIa (Enzyme Research Laboratories) was incubated; purchased Enzyme Research Laboratories
T2 sequence (P00748 373-615 limits assumed): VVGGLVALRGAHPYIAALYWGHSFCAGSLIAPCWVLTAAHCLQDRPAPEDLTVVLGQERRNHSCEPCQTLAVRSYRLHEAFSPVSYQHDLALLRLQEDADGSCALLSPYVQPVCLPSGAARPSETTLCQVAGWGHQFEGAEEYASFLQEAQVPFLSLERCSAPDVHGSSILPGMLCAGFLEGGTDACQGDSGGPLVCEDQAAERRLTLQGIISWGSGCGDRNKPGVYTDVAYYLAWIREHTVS
T2 sequence (P00748 20-372 partner limits assumed): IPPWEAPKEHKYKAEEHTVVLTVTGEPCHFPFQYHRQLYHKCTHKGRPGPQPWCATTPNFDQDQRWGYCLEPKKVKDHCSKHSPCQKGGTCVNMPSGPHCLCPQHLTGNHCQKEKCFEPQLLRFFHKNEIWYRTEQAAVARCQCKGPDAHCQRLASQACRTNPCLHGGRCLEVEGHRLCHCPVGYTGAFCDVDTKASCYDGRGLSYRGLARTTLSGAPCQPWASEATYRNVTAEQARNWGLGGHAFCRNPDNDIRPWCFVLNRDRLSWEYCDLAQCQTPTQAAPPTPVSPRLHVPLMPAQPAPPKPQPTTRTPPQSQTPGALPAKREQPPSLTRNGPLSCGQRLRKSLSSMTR

T1 sequence (P03951 388-625 limits assumed): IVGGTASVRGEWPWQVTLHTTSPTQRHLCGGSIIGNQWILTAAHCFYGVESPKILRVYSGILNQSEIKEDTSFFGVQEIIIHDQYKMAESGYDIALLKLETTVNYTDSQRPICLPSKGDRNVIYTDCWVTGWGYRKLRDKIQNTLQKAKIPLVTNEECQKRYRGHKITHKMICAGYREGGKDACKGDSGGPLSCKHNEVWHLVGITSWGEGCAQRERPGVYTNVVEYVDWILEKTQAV
T1 sequence (P03951 19-387 partner limits assumed): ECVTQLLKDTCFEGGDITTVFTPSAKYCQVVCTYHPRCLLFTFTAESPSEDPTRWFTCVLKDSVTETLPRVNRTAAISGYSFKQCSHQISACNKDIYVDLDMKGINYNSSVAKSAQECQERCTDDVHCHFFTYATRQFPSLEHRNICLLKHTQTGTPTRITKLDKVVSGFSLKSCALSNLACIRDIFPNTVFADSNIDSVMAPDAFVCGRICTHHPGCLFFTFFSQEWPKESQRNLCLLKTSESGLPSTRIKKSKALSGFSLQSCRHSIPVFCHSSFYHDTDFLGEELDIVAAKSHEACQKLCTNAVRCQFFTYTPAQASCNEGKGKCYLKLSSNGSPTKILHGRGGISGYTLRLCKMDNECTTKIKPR

Row | Compound | IC50 [1] [µM] | IC50 [2] [µM]
1 | CN1CCC(CCn2nc(Cl)cc2C(=O)NCc2ccc3c(N)nccc3c2)CC1 [Example 35.04, N-((1-Aminoisoquinolin-6-yl)methyl)-3-chloro-1-(2-(1-methylpiperidin-4-yl)ethyl)-1H-pyrazole-5-carboxamide] | > 40 | < 1
2 | Cc1cc(C(=O)NCc2ccc3c(N)nccc3c2)n(CC2CCN(c3ccncc3)CC2)n1 [Example 35.06] | > 40 | 10 to 40
3 | CCn1c(C(=O)NCc2ccc3c(N)nccc3c2)cc(C)c1CN1CCN(c2ccncc2)CC1 [Example 51.02, N-[(1-Amino-6-isoquinolyl)methyl]-1-ethyl-4-methyl-5-[[4-(4-pyridyl)piperazin-1-yl]methyl]pyrrole-2-carboxamide] | 12.4 | 10 to 40
4 | Cc1cc(C(=O)NCc2ccc3c(N)nccc3c2)nn1CC1CCN(c2ccncc2)CC1 [Example 51.04] | > 40 | 3 to 10
5 | COCc1c(C(=O)NCc2cnc3[nH]cc(Cl)c3c2)cnn1Cc1cc2c(cc1F)CCN(C)C2 [Example 69.01, N-((3-Chloro-1H-pyrrolo[2,3-b]pyridin-5-yl)methyl)-1-((6-fluoro-2-methyl-1,2,3,4-tetrahydroisoquinolin-7-yl)methyl)-5-(methoxymethyl)-1H-pyrazole-4-carboxamide] | > 40 | 1 to 3

Now from value to compound:

Row | IC50 [1] [µM] | IC50 [2] [µM] | Compound
6 | 31.7 | 3 to 10 | Nc1nccc2cc(CNC(=O)c3cc(C4CC4)nn3CC3CCN(c4ccncc4)CC3)ccc12 [Example 35.05]
7 | > 40 | 1 to 3 | CN1CCC(CCn2nccc2C(=O)NCc2ccc3c(N)nccc3c2)CC1 [Example 35.07]
8 | 20.5 | 3 to 10 | CCc1cc(C(=O)NCc2ccc3c(N)nccc3c2)sc1CN1CCN(c2ccncc2)CC1 [Example 51.03]
9 | > 40 | < 1 | CN1CCC(CCn2nc(C(=O)NCc3ccc4c(N)nccc4c3)cc2Cl)CC1 [Example 51.05, N-((1-Aminoisoquinolin-6-yl)methyl)-5-chloro-1-(2-(1-methylpiperidin-4-yl)ethyl)-1H-pyrazole-3-carboxamide]
10 | > 40 | 10 to 40 | CN1CCC(CNc2nccc3c2C(=O)N(Cc2ccc4c(N)nccc4c2)C3)CC1 [Example 82.01, 2-((1-Aminoisoquinolin-6-yl)methyl)-4-(((1-methylpiperidin-4-yl)methyl)amino)-1,2-dihydro-3H-pyrrolo[3,4-c]pyridin-3-one]
